Measurements taken from ChEMBL document CHEMBL5728354, “1,2-dihydro-3H-pyrazolo[3,4-d]pyrimidin-3-one derivative as Wee1 inhibitor” (2021).

Target: Wee1-like protein kinase (Homo sapiens, UniProt P30291)
Experiment: In Vitro Enzymatic Inhibitory Activity Assay: Experimental Reagents:Basic reaction buffer: 20 mM hydroxyethylpiperazine ethanesulfuric acid (pH 7.5), 10 mM magnesium chloride, 1 mM EGTA, 0.02% Brij35, 0.02 mg/mL bovine serum albumin, 0.1 mM Na3VO4, 2 mM DTT, 1% DMSOEnzyme: Wee-1 concentration is 150 nMMatrix: MBP concentration is 20 μMCompound Treatment:The tested compound was formulated into a 5 mM solution with 100% DMSO, and a 10 points 3-fold gradient dilution was performed with DMSO through an automated pipetting station epMotion 5070.Experiment Procedure:1. Fresh matrix configuration reaction buffer was prepared;2. The Wee-1 was added into the matrix solution and shaked gently;3. DMSO solution of the compound were added into the kinase reaction mixture using an acoustic technique (Echo 550; nanoliter range) and incubated for 20 minutes at room temperature;4. 33P-ATP (specific activity, 10 μCi/μL) was added into the reaction mixture to stimulate the reaction;5. Incubated for 2 hours at room temperature;6. Kinase activity was detected by filter-binding method.

Sequence of Wee1-like protein kinase (P30291 whole entry): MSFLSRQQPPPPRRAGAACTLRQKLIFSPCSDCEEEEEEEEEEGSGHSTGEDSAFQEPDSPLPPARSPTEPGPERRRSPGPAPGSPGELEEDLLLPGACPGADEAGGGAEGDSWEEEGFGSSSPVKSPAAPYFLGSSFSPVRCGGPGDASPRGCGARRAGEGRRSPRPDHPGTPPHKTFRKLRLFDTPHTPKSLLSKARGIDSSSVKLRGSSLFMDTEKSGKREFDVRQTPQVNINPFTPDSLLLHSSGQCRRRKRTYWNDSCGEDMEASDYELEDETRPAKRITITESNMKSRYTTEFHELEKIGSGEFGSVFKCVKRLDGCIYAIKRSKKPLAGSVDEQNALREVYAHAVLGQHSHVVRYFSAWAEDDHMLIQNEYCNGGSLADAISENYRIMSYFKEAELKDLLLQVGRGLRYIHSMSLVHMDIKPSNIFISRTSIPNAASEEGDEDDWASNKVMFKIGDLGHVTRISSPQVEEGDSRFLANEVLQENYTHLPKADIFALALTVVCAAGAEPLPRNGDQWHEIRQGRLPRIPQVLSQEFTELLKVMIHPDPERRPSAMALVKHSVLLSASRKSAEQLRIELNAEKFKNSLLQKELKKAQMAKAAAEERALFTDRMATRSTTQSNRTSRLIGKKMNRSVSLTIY

IC50 | Structure (SMILES)
620 nM | C=CCn1c2nc(Nc3ccc(N4CCC5(CCN(C)CC5)CC4)cc3)ncc2c(=O)n1-c1ccccc1Cl
64.6 nM | C=CCn1c(=O)c2cnc(Nc3ccc(N4CCC5(CCN(C)CC5)CC4)cn3)nc2n1-c1cccc(C(C)(C)O)n1
90.4 nM | C=CCn1c(=O)c2cnc(Nc3ccc(N4CCC5(CCN(C)CC5)CC4)cc3)nc2n1-c1cnccn1
